Inhibition data for 28 molecules are collected here from patent US7786152B2, “Compound” (priority 2002, dated 2010).

T1 sequence (P28845 whole entry): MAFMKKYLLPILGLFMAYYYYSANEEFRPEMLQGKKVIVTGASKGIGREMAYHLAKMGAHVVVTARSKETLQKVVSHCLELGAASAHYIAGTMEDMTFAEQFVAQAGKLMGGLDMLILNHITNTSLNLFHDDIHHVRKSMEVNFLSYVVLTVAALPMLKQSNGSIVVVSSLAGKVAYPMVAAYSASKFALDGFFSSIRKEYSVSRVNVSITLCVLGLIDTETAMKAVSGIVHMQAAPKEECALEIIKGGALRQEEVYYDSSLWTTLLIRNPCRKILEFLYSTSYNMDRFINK

This assay has as its target T1, Human 11βHSD1 (Homo sapiens, UniProt P28845).
T1 construct: the enzyme source, native hepatic enzyme compared to recombinant enzyme; tissue XenoTech H0610/Lot 0210078; host or cells: human hepatic microsomes
Nature of the assay: 11β HSD1 cortisol radioimmunoassay (RIA) with human hepatic microsomes. As to conditions: read-out: % inhibition of Human 11βHSD1 @ 10 μM. Format: biochemical. Here is the method:
Biological Assay Development Using Human 11β-Hydroxysteroid Dehydrogenase Type 1. Standard Operating Procedure for the 11β-Hydroxysteroid Dehydrogenase Type 1 Cortisol Radioimmunoassay. 11β HSD1 Cortisol RIA
Enzyme assay buffer: 30 mM Tris-HCL, pH 7.2 containing 1 mM EDTA
Antibody binding buffer: 50 mM Tris-HCL, pH 8, containing 0.1 M NaCl and 0.1% gelatin
Dilute into assay buffer 1 in 25. Also dilute neat DMSO 1 in 25 into assay buffer for controls.
Dilute this 1 in 50 into assay buffer.
Prepare NADPH as a 1.8 mg/ml solution in assay buffer.
Mix these 3 solutions 1:1:1 to make a solution of sufficient volume for 25 μl additions to each sample. Add 0.5 μCi tritiated cortisone per 25 μl and mix the solution well.
Microsome preparation: Dilute stock 20 mg/ml solution 1 in 100 with assay buffer.
Dextran coated charcoal preparation: Make a 20 mg/ml solution in antibody binding buffer and chill on ice.
Enzyme assay: To a u-bottom polypropylene 96 well plate add:
25 μl compound dilution or diluted DMSO to controls, NSB's and blanks
10 μl 1 mM GA in DMSO (enzyme stop solution) to blanks
25 μl substrate mixture to all samples
50 μl diluted microsomes to all samples
Incubate plate for 30 min at 37° C. shaking
Add 10 μl enzyme stop solution to all wells except the blanks
Add 100 μl antibody solution to all wells except the NSB's, add antibody binding buffer to these wells
Incubate at 37° C. for 1 h
Chill plate on ice for 15 min
Add 50 μl/well charcoal solution and mix with an 8-channel pipette (4-5 aspirations)
Centrifuge at 4° C., 2000×g for 15 min
Transfer 100 μl supernatant into an Optiplate, also add 25 μl substrate mixture to 2 empty wells to indicate counting efficiency
Add 200 μl Microscint-40 to all wells and count on a Topcount
The 11β HSD1 enzyme assay was carried out following the standard operating procedure described above in u-bottom polypropylene 96 well plates or 1.5 ml Eppendorf tubes as indicated for each experiment. Subsequent to stopping the enzyme reaction, 100 μl antibody prepared in buffer 3 unless otherwise indicated was added to test samples and 100 μl buffer 3 was added to the NSB samples. The samples were incubated for 1 hour at 37° C. and the chilled on ice for 15 mins. Dextran coated charcoal (50 μl/sample) prepared to the indicated concentration in buffer 3 was added and the samples were mixed (vortex for tubes and aspiration 5 times with an 8-channel pipette for 96 well plates) and chilled for a further 10 min. The samples were centrifuged at 2000×g for 15 min at 4° C. to pellet the charcoal. Aliquots of the supernatant (100 μl) were transferred to an Optiplate and counted on the Topcount in 150-200 μl Microscint 40. In some experiments, aliquots of supernatant were transferred to scintillation vials and counted on the Tricarb LSC in 5 ml Ultima Gold scintillant.
Substrate saturation was examined. The enzyme assay was carried out exactly described in the methods section, in Buffer 3 with 10 μg/well microsomal protein and with [cold cortisone] as indicated. [3H]-cortisone was 0.5 μCi/sample throughout. The reaction was stopped after 30 min by the addition of 10 μl stop solution. The RIA was carried out exactly as indicated in the methods section.
It is reported that DMSO can both increase and reduce microsomal enzyme activity, depending on the concentration, presumably due to effects on the microsomal membranes.
In the case of `Cc1nc2cc(NS(=O)(=O)c3ccc(Cl)cc3Cl)ccc2s1` [compound 412], the inhibition (commonly how much of the control response was suppressed) at 10 µM is 36%.

On to `Cc1nc2cc(NS(=O)(=O)c3cccc(Cl)c3C)ccc2s1` [compound 413], for which the inhibition at 10 µM turned out to be 29%.

Take `CCCc1ccc(S(=O)(=O)Nc2ccc3sc(C)nc3c2)cc1` [compound 421]: the inhibition at 10 µM was 42%.

Regarding `COc1ccc(S(=O)(=O)Nc2ccc3sc(C)nc3c2)cc1` [compound 424], the inhibition at 10 µM worked out at 47%.

As for `Cc1nc2cc(NS(=O)(=O)c3c(C)cccc3Cl)ccc2s1` [compound 425], the inhibition at 10 µM worked out at 41%.

As to `Cc1nc2cc(N(C)S(=O)(=O)c3cccc(Cl)c3C)ccc2s1` [compound 469], the inhibition at 10 µM is 66%.

On to `CCN(c1ccc2sc(C)nc2c1)S(=O)(=O)c1cccc(Cl)c1C` [compound 470], for which the inhibition at 10 µM was found to be 54%.

Turning to `Cc1nc2cc(NS(=O)(=O)c3ccc(Br)cc3)ccc2s1` [compound 519], the inhibition at 10 µM worked out at 48%.

`Cc1nc2cc(NS(=O)(=O)c3ccc(-c4ccccc4)cc3)ccc2s1` [compound 521]: the inhibition at 10 µM stood at 60%.

On to `Cc1nc2cc(NS(=O)(=O)c3c(Cl)cc(Cl)cc3Cl)ccc2s1` [compound 522], for which the inhibition at 10 µM was found to be 47%.

On to `Cc1nc2cc(NS(=O)(=O)c3ccc(Br)cc3C)ccc2s1` [compound 523], for which the inhibition at 10 µM amounted to 61%.

Regarding `Cc1nc2cc(NS(=O)(=O)c3cccc4cccnc34)ccc2s1` [compound 552], the inhibition at 10 µM worked out at 45%.

Turning to `Cc1nc2cc(NS(=O)(=O)c3cccc4ccccc34)ccc2s1` [compound 553], the inhibition at 10 µM stood at 48%.

On to `Cc1nc2cc(NS(=O)(=O)c3cccc4c(N(C)C)cccc34)ccc2s1` [compound 554], for which the inhibition at 10 µM is 53%.

With `Cc1nc2cc(NS(=O)(=O)c3cc(Cl)ccc3Cl)ccc2s1` [compound 580], the inhibition at 10 µM worked out at 30%.

`Cc1nc2cc(NS(=O)(=O)c3ccc4c(c3)CN(C(=O)C(F)(F)F)CC4)ccc2s1` [compound 581]: the inhibition at 10 µM is 29%.

Turning to `COc1ccc(Cl)cc1S(=O)(=O)Nc1ccc2sc(C)nc2c1` [compound 582], the inhibition at 10 µM was determined as 34%.

Consider `Cc1nc2cc(NS(=O)(=O)c3ccccc3C#N)ccc2s1` [compound 583], for which the inhibition at 10 µM came to 28%.

`COc1cc(C)ccc1S(=O)(=O)Nc1ccc2sc(C)nc2c1` [compound 584]: the inhibition at 10 µM was 20%.

Consider `Cc1nc2cc(NS(=O)(=O)c3ccc(Oc4ccccc4)cc3)ccc2s1` [compound 585], for which the inhibition at 10 µM was found to be 58%.

In the case of `CC(=O)c1ccccc1S(=O)(=O)Nc1ccc2sc(C)nc2c1` [compound 701], the inhibition at 10 µM is 41%.

As to `Cc1nc2cc(NS(=O)(=O)c3c(C(C)C)cc(C(C)C)cc3C(C)C)ccc2s1` [compound 703], the inhibition at 10 µM came out at 37%.

As for `Cc1nc2cc(NS(=O)(=O)c3ccc(C(C)C)cc3)ccc2s1` [compound 704], the inhibition at 10 µM amounted to 44%.

On to `COC(=O)c1ccccc1S(=O)(=O)Nc1ccc2sc(C)nc2c1` [compound 705], for which the inhibition at 10 µM worked out at 28%.

On to `COc1c(C)c(C)c(S(=O)(=O)Nc2ccc3sc(C)nc3c2)c(C)c1C` [compound 708], for which the inhibition at 10 µM stood at 21%.

Take `Cc1nc2cc(NS(=O)(=O)c3ccc(C(C)(C)C)cc3)ccc2s1` [compound 709]: the inhibition at 10 µM came out at 49%.

Regarding `Cc1nc2cc(NS(=O)(=O)c3c(C)c(C)c(C)c(C)c3C)ccc2s1` [compound 710], the inhibition at 10 µM turned out to be 35%.

In the case of `CCSc1nc2ccc(NS(=O)(=O)c3cccc(Cl)c3C)cc2s1` [compound 751], the inhibition at 10 µM is 22%.
